Source: the supplement of paper PMC11061612

Assays:
Palbociclib = compound: CC(=O)c1c(C)c2cnc(Nc3ccc(N4CCNCC4)cn3)nc2n(C2CCCC2)c1=O [Palbociclib]; conditions: max 10 µM
In short: (§1)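 In 1536-well plates, cancer cell lines in 7.5 μl DMEM/F12 or RPMI with 10% FBS spent 24 hours at 37°C and 5% CO2 and were then dosed for 72 hours with final DMSO typically 0.2%. Viability was read by CellTiter-Glo 2.0 luminescence and scaled between blank-well and DMSO-well means. The single-agent IC50 was fitted from dose responses using a logistic curve in a non-linear mixed effects model, and that logistic curve had two parameters.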

Paclitaxel = compound: CC(=O)O[C@H]1C(=O)[C@@]2(C)[C@H]([C@H](OC(=O)c3ccccc3)[C@]3(O)C[C@H](OC(=O)[C@H](O)[C@@H](NC(=O)c4ccccc4)c4ccccc4)C(C)=C1C3(C)C)[C@]1(OC(C)=O)CO[C@@H]1C[C@@H]2O [Paclitaxel]; conditions: max 3 µM
In short: as §1

AZD7648 = compound: Cc1cc2ncnn2cc1Nc1ncc2c(n1)n(C1CCOCC1)c(=O)n2C [AZD7648]; conditions: max 10 µM
In short: as §1

Olaparib = compound: O=C(c1cc(Cc2n[nH]c(=O)c3ccccc23)ccc1F)N1CCN(C(=O)C2CC2)CC1 [Olaparib]; conditions: max 10 µM
In short: as §1

MK-2206 = compound: NC1(c2ccc(-c3nc4ccn5c(=O)[nH]nc5c4cc3-c3ccccc3)cc2)CCC1 [MK-2206]; conditions: max 10 µM
In short: as §1

Etoposide = compound: COc1cc([C@@H]2c3cc4c(cc3[C@@H](O[C@@H]3O[C@@H]5CO[C@@H](C)O[C@H]5[C@H](O)[C@H]3O)[C@H]3COC(=O)[C@H]23)OCO4)cc(OC)c1O [Etoposide]; conditions: max 10 µM
In short: as §1

AZD5991 = compound: Cc1c2c(nn1C)CSCc1cc(n(C)n1)CSc1cc(c3ccccc3c1)OCCCc1c(C(=O)O)n(C)c3c-2c(Cl)ccc13 [AZD5991]; conditions: max 1 µM
In short: as §1

Lapatinib = compound: CS(=O)(=O)CCNCc1ccc(-c2ccc3ncnc(Nc4ccc(OCc5cccc(F)c5)c(Cl)c4)c3c2)o1 [Lapatinib]; conditions: max 10 µM
In short: as §1

Carboplatin = compound: C1CC(C1)(C(=O)[O-])C(=O)[O-].N.N.[Pt+2] [Carboplatin]; conditions: max 10 µM
In short: as §1

Savolitinib = compound: C[C@@H](c1ccc2nccn2c1)n1nnc2ncc(-c3cnn(C)c3)nc21 [Savolitinib]; conditions: max 1 µM
In short: as §1

Gemcitabine = compound: Nc1ccn([C@@H]2O[C@H](CO)[C@@H](O)C2(F)F)c(=O)n1 [Gemcitabine]; conditions: max 0.3 µM
In short: as §1

AZD0156 = compound: CN(C)CCCOc1ccc(-c2ccc3ncc4c(c3c2)n(C2CCOCC2)c(=O)n4C)cn1 [AZD0156]; conditions: max 3 µM
In short: as §1

Doxorubicin = compound: COc1cccc2c1C(=O)c1c(O)c3c(c(O)c1C2=O)C[C@@](O)(C(=O)CO)C[C@@H]3O[C@H]1C[C@H](N)[C@H](O)[C@H](C)O1 [Doxorubicin]; conditions: max 1 µM
In short: as §1

Crizotinib = compound: C[C@@H](Oc1cc(-c2cnn(C3CCNCC3)c2)cnc1N)c1c(Cl)ccc(F)c1Cl [Crizotinib]; conditions: max 10 µM
In short: as §1

SRA737 = compound: N#Cc1cnc(Nc2cc(NC[C@H]3CNCCO3)c(C(F)(F)F)cn2)cn1 [SRA737]; conditions: max 10 µM
In short: as §1

Prexasertib = compound: COc1cccc(OCCCN)c1-c1cc(Nc2cnc(C#N)cn2)n[nH]1 [Prexasertib]; conditions: max 1 µM
In short: as §1

AZD4320 = compound: CN(CC[C@H](CSC1=CC=CC=C1)NC2=C(C=C(C=C2)S(=O)(=O)NC(=O)C3=CC=C(C=C3)N4CCC(CC4)[C@H](C5=CC=CC=C5C6=CC=C(C=C6)Cl)O)S(=O)(=O)C(F)(F)F)CCO [AZD4320]; conditions: max 1 µM
In short: as §1

AZD5153 = compound: COc1nnc2ccc(N3CCC(c4ccc(OCCN5CCN(C)C(=O)[C@H]5C)cc4)CC3)nn12 [AZD5153]; conditions: max 1 µM
In short: as §1

SN-38 = compound: CCc1c2c(nc3ccc(O)cc13)-c1cc3c(c(=O)n1C2)COC(=O)[C@]3(O)CC [SN-38]; conditions: max 0.3 µM
In short: as §1

Trametinib = compound: CC(=O)Nc1cccc(-n2c(=O)n(C3CC3)c(=O)c3c(Nc4ccc(I)cc4F)n(C)c(=O)c(C)c32)c1 [Trametinib]; conditions: max 1 µM
In short: as §1

AZD6738 = compound: C[C@@H]1COCCN1C2=NC(=NC(=C2)C3(CC3)[S@](=N)(=O)C)C4=C5C=CNC5=NC=C4 [AZD6738]; conditions: max 10 µM
In short: as §1

[1] = compound: O=C(Nc1ccc2[nH]nc(-c3ccncc3)c2c1)[C@@H]1CCN(CC(=O)N2CCN(c3ccc(-c4ncccn4)cc3)CC2)C1; conditions: max 5 µM
In short: as §1

Venetoclax = compound: CC1(C)CCC(CN2CCN(c3ccc(C(=O)NS(=O)(=O)c4ccc(NCC5CCOCC5)c([N+](=O)[O-])c4)c(Oc4cnc5[nH]ccc5c4)c3)CC2)=C(c2ccc(Cl)cc2)C1 [Venetoclax]; conditions: max 1 µM
In short: as §1

5-Fluorouracil = compound: O=c1[nH]cc(F)c(=O)[nH]1 [5-Fluorouracil]; conditions: max 20 µM
In short: as §1

Selumetinib = compound: Cn1cnc2c(F)c(Nc3ccc(Br)cc3Cl)c(C(=O)NOCCO)cc21 [Selumetinib]; conditions: max 10 µM
In short: as §1

AZD8186 = compound: C[C@@H](Nc1cc(F)cc(F)c1)c1cc(C(=O)N(C)C)cc2c(=O)cc(N3CCOCC3)oc12 [AZD8186]; conditions: max 10 µM
In short: as §1

Alisertib = compound: COc1cc(Nc2ncc3c(n2)-c2ccc(Cl)cc2C(c2c(F)cccc2OC)=NC3)ccc1C(=O)O [Alisertib]; conditions: max 10 µM
In short: as §1

Taselisib = compound: Cc1nc(-c2cn3c(n2)-c2ccc(-c4cnn(C(C)(C)C(N)=O)c4)cc2OCC3)n(C(C)C)n1 [Taselisib]; conditions: max 10 µM
In short: as §1

AZD2811 = compound: CCN(CCO)CCCOc1ccc2c(Nc3cc(CC(=O)Nc4cccc(F)c4)[nH]n3)ncnc2c1 [AZD2811]; conditions: max 1 µM
In short: as §1

AZD5363 = compound: C1CN(CCC1(C(=O)N[C@@H](CCO)C2=CC=C(C=C2)Cl)N)C3=NC=NC4=C3C=CN4 [AZD5363]; conditions: max 10 µM
In short: as §1

Gefitinib = compound: COc1cc2ncnc(Nc3ccc(F)c(Cl)c3)c2cc1OCCCN1CCOCC1 [Gefitinib]; conditions: max 10 µM
In short: as §1

Dasatinib = compound: CC1=C(C(=CC=C1)Cl)NC(=O)C2=CN=C(S2)NC3=CC(=NC(=N3)C)N4CCN(CC4)CCO [Dasatinib]; conditions: max 2 µM
In short: as §1

SG3199 = compound: CC1=CN2[C@@H](C1)C=NC3=CC(=C(C=C3C2=O)OC)OCCCCCOC4=C(C=C5C(=C4)N=C[C@@H]6CC(=CN6C5=O)C)OC [SG3199]; conditions: max 0.001 µM
In short: as §1

AZD1775 = compound: C=CCn1c(=O)c2cnc(Nc3ccc(N4CCN(C)CC4)cc3)nc2n1-c1cccc(C(C)(C)O)n1 [AZD1775]; conditions: max 3 µM
In short: as §1

AZD1390 = compound: CC(C)n1c(=O)n(C)c2cnc3cc(F)c(-c4ccc(OCCCN5CCCCC5)nc4)cc3c21 [AZD1390]; conditions: max 0.3 µM
In short: as §1

| Cell Line | IC50, cell viability 72 h (Palbociclib) [nM] | IC50, cell viability 72 h (Paclitaxel) [nM] | IC50, cell viability 72 h (AZD7648) [nM] | IC50, cell viability 72 h (Olaparib) [nM] | IC50, cell viability 72 h (MK-2206) [nM] | IC50, cell viability 72 h (Etoposide) [nM] | IC50, cell viability 72 h (AZD5991) [nM] | IC50, cell viability 72 h (Lapatinib) [nM] | IC50, cell viability 72 h (Carboplatin) [nM] | IC50, cell viability 72 h (Savolitinib) [nM] | IC50, cell viability 72 h (Gemcitabine) [nM] | IC50, cell viability 72 h (AZD0156) [nM] | IC50, cell viability 72 h (Doxorubicin) [nM] | IC50, cell viability 72 h (Crizotinib) [nM] | IC50, cell viability 72 h (SRA737) [nM] | IC50, cell viability 72 h (Prexasertib) [nM] | IC50, cell viability 72 h (AZD4320) [nM] | IC50, cell viability 72 h (AZD5153) [nM] | IC50, cell viability 72 h (SN-38) [nM] | IC50, cell viability 72 h (Trametinib) [nM] | IC50, cell viability 72 h (AZD6738) [nM] | IC50, cell viability 72 h [1] [nM] | IC50, cell viability 72 h (Venetoclax) [nM] | IC50, cell viability 72 h (5-Fluorouracil) [nM] | IC50, cell viability 72 h (Selumetinib) [nM] | IC50, cell viability 72 h (AZD8186) [nM] | IC50, cell viability 72 h (Alisertib) [nM] | IC50, cell viability 72 h (Taselisib) [nM] | IC50, cell viability 72 h (AZD2811) [nM] | IC50, cell viability 72 h (AZD5363) [nM] | IC50, cell viability 72 h (Gefitinib) [nM] | IC50, cell viability 72 h (Dasatinib) [nM] | IC50, cell viability 72 h (SG3199) [nM] | IC50, cell viability 72 h (AZD1775) [nM] | IC50, cell viability 72 h (AZD1390) [nM] |
| --- | --- | --- | --- | --- | --- | --- | --- | --- | --- | --- | --- | --- | --- | --- | --- | --- | --- | --- | --- | --- | --- | --- | --- | --- | --- | --- | --- | --- | --- | --- | --- | --- | --- | --- | --- |
| SW1088 (Low Grade Glioma) | > 10000 | 29.1 | > 10000 | > 10000 | > 10000 | > 10000 | > 1000 | > 10000 | > 10000 | > 1000 | > 300 | > 3000 | > 1000 | > 10000 | > 10000 | 129 | > 1000 | > 1000 | > 300 | > 1000 | 9510 | > 5000 | > 1000 | > 20000 | > 10000 | 1740 | 807 | 4280 | > 1000 | 6480 | > 10000 | 283 | > 1 | 2040 | > 300 |
| SW1783 (Low Grade Glioma) | > 10000 | 407 | > 10000 | > 10000 | > 10000 | > 10000 | > 1000 | > 10000 | > 10000 | > 1000 | 121 | > 3000 | > 1000 | > 10000 | > 10000 | > 1000 | > 1000 | > 1000 | 45.2 | > 1000 | > 10000 | > 5000 | > 1000 | > 20000 | > 10000 | 8000 | 8540 | 5980 | > 1000 | > 10000 | > 10000 | > 2000 | > 1 | 1410 | > 300 |
